Test results taken from paper PMC4669708 (Cell Death & Disease, 2015).

What was measured:
Experiment in all cases: c-ponatinib pulldown LC-MS/MS
Type in all cases: binding
[1] = molecular target: T1, TAOK3 (Homo sapiens, UniProt Q9H2K8)
T1 sequence (Q9H2K8 1-898): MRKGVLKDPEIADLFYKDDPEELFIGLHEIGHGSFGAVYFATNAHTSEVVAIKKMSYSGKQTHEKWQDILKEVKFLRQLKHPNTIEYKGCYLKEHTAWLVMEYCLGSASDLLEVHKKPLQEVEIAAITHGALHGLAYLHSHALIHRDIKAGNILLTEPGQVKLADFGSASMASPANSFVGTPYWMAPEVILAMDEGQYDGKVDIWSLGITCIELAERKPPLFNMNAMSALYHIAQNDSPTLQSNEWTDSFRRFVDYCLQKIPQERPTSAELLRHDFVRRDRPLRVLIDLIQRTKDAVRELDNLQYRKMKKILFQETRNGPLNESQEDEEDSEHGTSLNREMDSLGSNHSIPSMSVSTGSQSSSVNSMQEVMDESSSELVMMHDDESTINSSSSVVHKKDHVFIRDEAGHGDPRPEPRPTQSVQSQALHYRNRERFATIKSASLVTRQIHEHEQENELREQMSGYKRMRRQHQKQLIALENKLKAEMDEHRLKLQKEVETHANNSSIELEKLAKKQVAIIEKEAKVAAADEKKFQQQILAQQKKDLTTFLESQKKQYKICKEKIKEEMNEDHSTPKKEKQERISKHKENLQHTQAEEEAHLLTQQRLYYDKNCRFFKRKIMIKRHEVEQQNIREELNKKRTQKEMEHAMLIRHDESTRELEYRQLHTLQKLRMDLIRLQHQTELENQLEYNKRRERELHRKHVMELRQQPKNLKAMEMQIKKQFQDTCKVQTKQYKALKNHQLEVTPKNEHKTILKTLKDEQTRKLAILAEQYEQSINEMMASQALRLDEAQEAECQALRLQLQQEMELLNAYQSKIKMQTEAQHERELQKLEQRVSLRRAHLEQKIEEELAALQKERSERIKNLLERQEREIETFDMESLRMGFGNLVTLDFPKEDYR
Outline: (§1)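 Whole cell lysate (10 mg) was first passed over immobilized c-ponatinib, and bound proteins were eluted. After reduction, alkylation and tryptic digestion, the peptides were analysed by LC-MS/MS. Finally, binding specificity was assigned by a combined P-value, with or without free-compound competition.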

[2] = molecular target: T2, YWHAZ (Homo sapiens, UniProt P63104)
T2 sequence (P63104 1-245): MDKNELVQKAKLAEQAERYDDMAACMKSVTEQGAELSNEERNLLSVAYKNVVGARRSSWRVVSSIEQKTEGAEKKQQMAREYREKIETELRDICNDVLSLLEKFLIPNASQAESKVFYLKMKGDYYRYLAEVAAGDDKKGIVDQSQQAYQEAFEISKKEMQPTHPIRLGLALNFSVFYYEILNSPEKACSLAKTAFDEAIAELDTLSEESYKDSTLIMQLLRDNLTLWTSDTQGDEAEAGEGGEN
Outline: as §1

[3] = molecular target: ZAK (Homo sapiens, UniProt Q9NYL2)
Outline: as §1

Sequence of ZAK (Q9NYL2 whole entry): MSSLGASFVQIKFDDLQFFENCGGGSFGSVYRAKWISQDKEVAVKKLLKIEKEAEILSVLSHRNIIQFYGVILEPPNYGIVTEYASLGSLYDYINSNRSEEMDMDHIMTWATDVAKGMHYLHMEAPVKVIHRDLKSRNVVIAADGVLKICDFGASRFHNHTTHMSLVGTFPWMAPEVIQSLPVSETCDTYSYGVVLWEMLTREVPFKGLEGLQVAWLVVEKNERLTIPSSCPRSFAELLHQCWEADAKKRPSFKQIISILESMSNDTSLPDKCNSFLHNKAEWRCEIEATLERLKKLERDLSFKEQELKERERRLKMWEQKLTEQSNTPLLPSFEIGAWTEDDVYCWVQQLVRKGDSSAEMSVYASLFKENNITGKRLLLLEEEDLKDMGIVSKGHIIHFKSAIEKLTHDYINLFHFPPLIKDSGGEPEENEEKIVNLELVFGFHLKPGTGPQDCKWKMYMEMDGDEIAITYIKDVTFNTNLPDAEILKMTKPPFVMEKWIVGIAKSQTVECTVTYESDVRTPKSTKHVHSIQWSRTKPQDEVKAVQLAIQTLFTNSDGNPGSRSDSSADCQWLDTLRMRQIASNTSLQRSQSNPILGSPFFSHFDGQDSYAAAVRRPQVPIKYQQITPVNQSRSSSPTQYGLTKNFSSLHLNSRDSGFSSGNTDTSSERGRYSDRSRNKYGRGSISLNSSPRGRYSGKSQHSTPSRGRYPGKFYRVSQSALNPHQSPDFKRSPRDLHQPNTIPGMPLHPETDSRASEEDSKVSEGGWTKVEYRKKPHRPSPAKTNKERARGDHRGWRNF

## Cc1ccc(C(=O)Nc2ccc(CN3CCN(CCCN)CC3)c(C(F)(F)F)c2)cc1C#Cc1cnc2cccnn12 [c-ponatinib]
[1]; + free ponatinib
  Av. SC comp.: 2
  Total SC comp.: 8
[1]; no competitor
  Av. SC: 13
  Total SC: 52
[2]; + free ponatinib
  Av. SC comp.: 2.5
  Total SC comp.: 10
[2]; no competitor
  Av. SC: 10.5
  Total SC: 42
[3]; + free ponatinib
  Av. SC comp.: 0
  Total SC comp.: 0
[3]; no competitor
  Av. SC: 65.25
  Total SC: 261
